Read-outs that look alike come from different tables or passages of the source.
How the values were obtained:
HeLa cells = assay: MTT cell viability, HeLa; assay type: cell-based; conditions: Homo sapiens, MTT at 24 hours
From the text: (§1) Cell Culture: HeLa, DU145, H1299, DLD1, SW480, A549, MCF7, LN18, HCT116, HepG2, Paca2, Panel, LNcap, FaDu, HT29, and PC3 cells (ATCC, Manassas, Va.) were maintained in Dulbecco's Modified Eagle Medium (DMEM) (Invitrogen, Carlsbad, Calif.) supplemented with 10% fetal bovine serum (MS) (Gemini Bio-Products, West Sacramento, Calif.) and 5% penicillin/streptomycin/amphotercin B (Invitrogen).
(§2) Cell Viability Determination: For 3-(4,5 dimethylthiazol-2-yl)-2,5-diphenyltetrazolium (MTT) (Sigma-Aldrich, St. Louis, Mo.) analysis, cells were plated in 96 well plates at 10,000 cells per well. 24 hours after plating, compound was added to cells at indicated doses. 22 hours following compound addition, MTT was added to each well (0.5 mg/ml, final concentration) and plates were incubated for an additional 2 hours at 37° C., Medium was then aspirated and the formazan product was solubilized in 100 μl of isopropyl alcohol. The absorbance of each well was measured at 570 nm using a microplate reader.
(§3) Identification of compounds that are apoptotic to a broad spectrum of cancer cells in vitro. Cells plated in 96 well plates and treated with indicated compounds were subjected to MTT analysis at 24 hours following compound treatment to determine cell viability.

DU145 cells = assay: MTT cell viability, DU145; assay type: cell-based; conditions: Homo sapiens, DU-145, MTT at 24 hours
From the text: as §1, §2, §3

H1299 cells = assay: MTT cell viability, H1299; assay type: cell-based; conditions: Homo sapiens, NCI-H1299, MTT at 24 hours
From the text: as §1, §2, §3

[1] = target: T1, Stat3 DNA-binding activity (Homo sapiens, UniProt P40763); assay: Stat3 DNA binding assay (EMSA), HeLa nuclear extract; assay type: biochemical; conditions: for inhibition % 1 × MTT IC50: compound at 1 × MTT IC50, untreated Stat3 retarded band set as 100; for inhibition % 3 × MTT IC50: compound at 3 × MTT IC50, untreated Stat3 retarded band set as 100
T1 construct: endogenous in cells; host or cells: HeLa cells (nuclear extract)
Procedure: STAT3 DNA Binding Assay: Electrophoretic mobility shift assay (EMSA) was performed as described by the manufacturer (Li-Cor Biosciences, Lincoln, Nebr.). Briefly, nuclear extracts were made from HeLa cells using the NucBuster Protein Extraction Kit as described by the manufacturer (EMD Biosciences, San Diego, Calif.). 5 μg of nuclear extract was pre-incubated with the indicated dose of indicated compound for 30 minutes prior to a 15-minute incubation with the IR700-labeled consensus Stat3 oligonucleotide. Samples were then electrophoresed on a polyacrylamide gel and directly scanned using the Odyssey infrared imaging system (Li-Cor Biosciences). For the enzyme-linked immunosorbent assay (ELISA), 5 μg of nuclear extract was preincubated with indicated concentration of indicated compound for 30 minutes prior to the addition of biotinylated oligo (5′-Biotin-[…]-3′). Stat3-DNA complexes were then captured on streptavidin coated 96 well plates (Pierce, Rockford, Ill.). Bound complexes were then incubated with Stat3 polyclonal antibody (Santa Cruz Biotechnology, Santa Cruz, Calif.) followed by anti-rabbit HRP conjugated secondary antibody (GE Healthcare, Pittsburgh, Pa.). Bound antibody was then visualized by addition of TMB substrate (Pierce) and absorbance measured at 450 nm.
Inhibition of Stat3 DNA-binding activity. Nuclear extracts from HeLa cells, which contain constitutively activated Stat3 as detected by phoshporylation at the tyrosine 705 residue, were used to perform Stat3 EMSAs to monitor Stat3 DNA binding activity. Nuclear extracts were incubated with indicated compound prior to incubation with IR700-labeled Stat3 consensus oligonucleotide. Binding of Stat3 to the oligonucleotide was monitored by gel electrophoresis and detection using a LiCor Odyssey infrared scanner.
To calculate the inhibition %, the density of the untreated Stat3 retarded band (control) was set as 100 and the inhibition % was the difference between the control and the relative DNA binding activity of the drug-treated samples.

SW480 NSP cells = assay: Anti-CSC MTT assay, SW480 non-SP (NSP) cells; assay type: cell-based; conditions: Homo sapiens, 48 h
Procedure: as §2
(§4) Hoechst Side Population: To identify and isolate side population (SP) and non-SP fractions, SW480 cells were removed from the culture dish with trypsin and EDTA, pelleted by centrifugation, washed with phosphate-buffered saline (PBS), and resuspended at 37° C. in Dulbecco's modified Eagle's medium (DMEM) containing 2% FBS and 1 rnM HEPES. The cells were then labeled with Hoechst 33342 (Invitrogen) at a concentration of 5 μg/mL. The labeled cells were incubated for 120 minutes at 37° C., either alone or with 50 μM verapamil (Sigma-Aldrich, St. Louis). After staining, the cells were suspended in Hanks' balanced saline solution (MISS; Invitrogen) containing 2% FBS and 1 mM HEPES, passed a through 40 μm mesh filter, and maintained at 4° C. until flow cytometry analysis. The Hoechst dye was excited at 350 nm, and its fluorescence was measured at two wavelengths using a 450 DF10 (450/20 nm band-pass filter) and a 675LP (675 nm long-pass edge filter) optical filter. The gating on forward and side scatter was not stringent, and only debris was excluded.
(§5) In order to test compounds for anti-CSC activity, freshly isolated CSCs (SW480 Hoechst SP cells or CD44^high FaDu cells) were exposed to a dose range (30-0.117 μM) of compound for 48 h before examining cell viability by MTT assay. IC50s were estimated by plotting the percentage of surviving cells. As shown in Table 7 and Table 8, the compounds of present invention can target cancer stem cells.

SW480 Hoechst SP cells = assay: Anti-CSC MTT assay, SW480 Hoechst side population (SP) cells; assay type: cell-based; conditions: Homo sapiens, 48 h
Procedure: as §2, §4, §5

DLD1 cells = assay: MTT cell viability, DLD1; assay type: cell-based; conditions: Homo sapiens, DLD-1; DLD1, Colon; MTT at 24 hours; Table 3
From the text: as §1, §2, §3

SW480 cells = assay: MTT cell viability, SW480; assay type: cell-based; conditions: Homo sapiens; SW480, Colon; MTT at 24 hours; Table 3
From the text: as §1, §2, §3

PC3 cells = assay: MTT cell viability, PC3; assay type: cell-based; conditions: Homo sapiens, PC-3; PC3, Prostate; MTT at 24 hours; Table 3
From the text: as §1, §2, §3

[2] = test system: Stat3 transcription activity; assay: Stat3-luciferase (Stat3-Luc) reporter assay in HeLa cells, OSM stimulated; assay type: cell-based; conditions: Homo sapiens, compound 30 minutes before 25 ng/ml oncostatin M, 6 hours, read-out: IC50 in Stat3-Luc assays
Procedure: Luciferase Reporter Assay: HeLa Cells were co-transfected with Stat3-luciferase (Stat3-Luc) reporter vector (Panomics, Fremont, Calif.) and Renilla luciferase (Promega, Madison, Wis.) using Lipofectamine 2000 as described by the manufacturer (Invitrogen). Following transfection, cells were maintained in medium containing 0.5% FBS for 24 hours. Cells were then treated with the indicated compound for 30 minutes prior to the addition of 25 ng/ml oncostatin M (OSM) (R&D Systems, Minneapolis, Minn.) to the medium. 6 hours following OSM addition, cells were harvested and levels of firefly and renilla luciferase were measured using the Dual-Glo Luciferase Assay System as described by the manufacturer (Promega).
Inhibition of Stat3 transcription activity. Compounds were tested for their ability to inhibit Stat3 transcription activation activity in cells using a Stat3-luciferase (Stat3-luc) reporter construct. Cells transfected with Stat3-luc were cultured in reduced serum medium prior to addition of indicated compound for 30 minutes. Cells were then stimulated with 25 ng/ml oncostatin (OSM) for 6 hours followed by detection of Stat3-luc reporter activity.

Paca2 cells = assay: MTT cell viability, Paca2; assay type: cell-based; conditions: PaCa-2; Paca2, Pancreas; MTT at 24 hours; Table 3
From the text: as §1, §2, §3

Panc1 cells = assay: MTT cell viability, Panc1; assay type: cell-based; conditions: Homo sapiens, PANC-1; Panc1, Pancreas; MTT at 24 hours; Table 3
From the text: as §1, §2, §3

MCF7 cells = assay: MTT cell viability, MCF7; assay type: cell-based; conditions: Homo sapiens; MCF7, Breast; MTT at 24 hours; Table 3
From the text: as §1, §2, §3

HT29 cells = assay: MTT cell viability, HT29; assay type: cell-based; conditions: Homo sapiens, HT-29; HT29, Colon; MTT at 24 hours; Table 3
From the text: as §1, §2, §3

A549 cells = assay: MTT cell viability, A549; assay type: cell-based; conditions: Homo sapiens; A549, Lung; MTT at 24 hours following compound treatment; Table 3
From the text: as §1, §2, §3

HCT116 cells = assay: MTT cell viability, HCT116; assay type: cell-based; conditions: Homo sapiens, HCT-116; HCT116, Colon; MTT at 24 hours; Table 3
From the text: as §1, §2, §3

[3] = Hela, Table 4, read-out: IC50 (μM) Hela
[4] = DU145, Table 4, read-out: IC50 (μM) DU145
[5] = H1299, Table 4, read-out: IC50 (μM) H1299
[6] = HeLa, Cervix, Table 3, read-out: IC50
[7] = DU145, Prostate, Table 3, read-out: IC50
[8] = H1299, Lung, Table 3, read-out: IC50

T1 sequence (P40763 whole entry): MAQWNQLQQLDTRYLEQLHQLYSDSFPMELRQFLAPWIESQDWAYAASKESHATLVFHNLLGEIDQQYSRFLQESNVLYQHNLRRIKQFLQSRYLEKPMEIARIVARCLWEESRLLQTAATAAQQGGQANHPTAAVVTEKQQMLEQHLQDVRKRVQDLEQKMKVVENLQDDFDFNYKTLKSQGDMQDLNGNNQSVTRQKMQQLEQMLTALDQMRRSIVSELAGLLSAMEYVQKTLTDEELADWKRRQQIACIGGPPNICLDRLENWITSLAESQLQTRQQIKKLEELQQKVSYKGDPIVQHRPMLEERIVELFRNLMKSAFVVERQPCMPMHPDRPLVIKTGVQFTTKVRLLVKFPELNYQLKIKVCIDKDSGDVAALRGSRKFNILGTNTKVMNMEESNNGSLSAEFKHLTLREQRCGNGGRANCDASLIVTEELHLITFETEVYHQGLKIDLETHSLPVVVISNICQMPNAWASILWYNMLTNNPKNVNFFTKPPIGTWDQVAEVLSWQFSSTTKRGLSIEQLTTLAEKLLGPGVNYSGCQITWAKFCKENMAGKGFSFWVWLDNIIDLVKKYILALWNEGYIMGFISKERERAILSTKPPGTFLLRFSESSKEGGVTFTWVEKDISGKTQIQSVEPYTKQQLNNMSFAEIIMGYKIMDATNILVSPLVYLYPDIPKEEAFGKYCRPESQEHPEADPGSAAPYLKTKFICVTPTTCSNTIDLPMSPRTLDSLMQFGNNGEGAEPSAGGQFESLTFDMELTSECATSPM

Compound | IC50 (HeLa cells; [3]) | IC50 (DU145 cells; [4]) | IC50 (H1299 cells; [5]) | other results
CCc1cc2c(o1)C(=O)c1ccccc1C2=O [Compound 101] | 11.7 µM | 3.7 µM | 3 to 10 µM | 
Cc1cc2c(o1)C(=O)c1ccccc1C2=O [Compound 102] | 11.4 µM |  |  | 
O=C1c2ccccc2C(=O)c2oc(Cc3ccccc3)cc21 [Compound 103] | 16.7 µM | > 10 µM | 8.9 µM | inhibition % 1 × MTT IC50 [1]: 98%; inhibition % 3 × MTT IC50 [1]: 26%
CCc1cc2c(o1)C(=O)c1cc(Cl)ccc1C2=O [Compound 105] | 13 µM | 6.5 µM | 8.4 µM | 
CCc1cc2c(o1)C(=O)c1cc(F)ccc1C2=O [Compound 106] |  | 4.84 µM |  | IC50 (SW480 NSP cells): 2 µM; inhibition % 1 × MTT IC50 [1]: 26%; inhibition % 3 × MTT IC50 [1]: 51%; IC50 (SW480 Hoechst SP cells): 4.44 µM
Cc1oc2c(c1-c1ccccc1)C(=O)c1ccccc1C2=O [Compound 108] | 20.7 µM | 30.8 µM |  | 
C=Cc1cc2c(o1)C(=O)c1ccccc1C2=O [Compound 201] |  | 1.76 µM |  | 
CC(O)c1cc2c(o1)C(=O)c1ccccc1C2=O (centres unmarked) [Compound 301] | 3.36 µM |  | 0.794 µM | inhibition % 1 × MTT IC50 [1]: 20%; inhibition % 3 × MTT IC50 [1]: 26%
CC(=O)OC(C)c1cc2c(o1)C(=O)c1ccccc1C2=O (centres unmarked) [Compound 303] |  | 2.88 µM |  | 
CC(=O)OC(C)c1cc2c(o1)C(=O)c1cc(F)ccc1C2=O (centres unmarked) [Compound 305] | 1.71 µM | 1.1 µM |  | 
O=C(c1ccccc1)c1cc2c(s1)C(=O)c1ccccc1C2=O [Compound 402] | 2.01 µM | 0.554 µM | 1.04 µM | IC50 (SW480 NSP cells): 0.38 µM; IC50 (HeLa cells; [6]): 2.01 µM; IC50 (DLD1 cells): 2.51 µM; IC50 (SW480 cells): 1.49 µM; IC50 (PC3 cells): 8.48 µM; IC50 (DU145 cells; [7]): 0.55 µM; IC50 (H1299 cells; [8]): 1.04 µM; IC50 [2]: ~0.75 µM; IC50 (Paca2 cells): 0.49 µM; IC50 (Panc1 cells): 7.21 µM; inhibition % 1 × MTT IC50 [1]: 29%; inhibition % 3 × MTT IC50 [1]: 57%; IC50 (SW480 Hoechst SP cells): 0.4 µM
O=C(c1ccc([N+](=O)[O-])cc1)c1cc2c(s1)C(=O)c1ccccc1C2=O [Compound 403] |  | 6.5 µM | 4 µM | 
O=C(O)c1cc2c(o1)C(=O)c1ccccc1C2=O [Compound 405] |  | 1.41 µM |  | 
COc1ccc(C(=O)c2cc3c(s2)C(=O)c2ccccc2C3=O)cc1 [Compound 407] | 3.78 µM | 2.1 µM | 4.11 µM | IC50 [2]: ~5 µM
O=C(c1ccc(O)cc1)c1cc2c(s1)C(=O)c1ccccc1C2=O [Compound 408] | 4.47 µM | 0.554 µM | 3.62 µM | IC50 [2]: ~2 µM
CC(=O)c1cc2c(s1)C(=O)c1ccccc1C2=O [Compound 409] | 1.88 µM | 0.442 µM | 1.03 µM | IC50 [2]: ~2 µM
COc1ccc(C(=O)c2cc3c(s2)C(=O)c2ccccc2C3=O)cc1OC [Compound 410] | 2.52 µM | 0.239 µM | 1.88 µM | IC50 [2]: ~1 µM
O=C(c1ccc(O)c(O)c1)c1cc2c(s1)C(=O)c1ccccc1C2=O [Compound 411] | 14.7 µM | 0.616 µM | 14.1 µM | 
COc1ccc(C(=O)c2cc3c(o2)C(=O)c2ccccc2C3=O)cc1OC [Compound 413] | 4.38 µM | 0.721 µM | 1.9 µM | 
O=Cc1cc2c(o1)C(=O)c1ccccc1C2=O [Compound 414] | 13 µM | 14.1 µM | 11.3 µM | 
O=C(c1ccccc1)c1cc2c(o1)C(=O)c1cc(Br)ccc1C2=O [Compound 415] | 10.5 µM | 9.8 µM | 6.5 µM | 
CC(=O)c1cc2c(o1)C(=O)c1cc(Cl)ccc1C2=O [Compound 416] | 0.711 µM | 0.211 µM | 0.337 µM | IC50 (MCF7 cells): 0.75 µM; IC50 (HeLa cells; [6]): 0.62 µM; IC50 (DLD1 cells): 0.54 µM; IC50 (SW480 cells): 0.44 µM; IC50 (PC3 cells): 3.1 µM; IC50 (DU145 cells; [7]): 0.22 µM; IC50 (H1299 cells; [8]): 0.25 µM; IC50 (Paca2 cells): 0.21 µM; IC50 (HT29 cells): 1.91 µM; IC50 (Panc1 cells): 2.59 µM; inhibition of Stat3 DNA binding (in words) ([1]; HeLa nuclear extract, FIG. 6A/6B): inhibits Stat3 DNA-binding activity; IC50 (A549 cells): 1.9 µM; IC50 (HCT116 cells): 0.69 µM
O=C(c1cccc(Cl)c1)c1cc2c(o1)C(=O)c1ccccc1C2=O [Compound 417] |  | 0.768 µM |  | 
O=C(c1ccccc1)c1cc2c(o1)C(=O)c1cc(F)ccc1C2=O [Compound 419] |  | 1.82 µM |  | 
